The record followed here is paper PMC9590307, “Peptide ^Tat(48–60) YVEEL protects against necrotizing enterocolitis through inhibition of toll-like receptor 4-mediated signaling in a phosphatidylinositol 3-kinase/AKT dependent manner” (Frontiers in Nutrition, 2022).

Common to all, as to type: cell-based, human
In test [1] the test system is TLR4-mediated signaling in FHC enterocytes. Put plainly: qRT-PCR of IL-6 and COX-2 mRNA in LPS-treated enterocytes.
Test [2] has the same test system. Kind of test: Western blot of TLR4-mediated signaling in LPS-treated enterocytes.
The test system of test [3] is p65 subunit of NF-κB in FHC cells. Put plainly: Immunofluorescence staining of NF-κB p65 nuclear translocation. Conditions: Ys49 2 and 5 μM with peptide 40 μM for 1 h, then LPS. On the procedure: FHC cells were fixed, washed and blocked, and then incubated with the following primary antibodies: anti-NF-κB p65 (Cell Signaling Technology, USA) and […]. The Alexa Fluor® 488-labeled goat anti-rabbit secondary antibody was used (Cell Signaling Technology, USA). FHC cells were counterstained with DAPI (Sigma-Aldrich, USA) and visualized using a fluorescence microscope (Zeiss, Germany).

Test [4] concerns PI3K/AKT pathway in FHC enterocytes. Put plainly: Western blot of PI3K and AKT phosphorylation. Conditions: Ys49 2 and 5 μM with ^Tat(48–60) YVEEL 40 μM for 1 h, then LPS. The method, then: Cell pellets or intestinal tissues were lysed with RIPA buffer (Beyotime, China) for 20 min on ice and lysates were collected by centrifugation (13000 × g, 20 min at 4°C). Protein concentrations were quantified using the BCA Protein Assay (Thermo Fisher Scientific, USA) and equal amounts (20 μg) of protein lysates from each sample were separated by SDS-PAGE. Separated proteins were then transferred to PVDF membranes (Millipore, USA). Membranes were blocked with 5% skim milk or BSA and then incubated with the following primary antibodies: anti-TLR4 (Abcam, USA), anti-p-IκBα (Abcam, USA), anti-IκBα (Abcam, USA), anti-p-PI3K (Cell Signaling Technology, USA), anti-p-AKT (Cell Signaling Technology, USA), anti-PI3K (Cell Signaling Technology, USA), anti-AKT (Cell Signaling Technology, USA), anti-β-actin (Abcam, USA). Membranes were then incubated with species-matched HRP-conjugated secondary antibodies (Biosharp, China). Protein expressions were visualized using Immobilon® Western Chemiluminescent HRP Substrate (Millipore, USA) in accordance with the manufacturer’s protocol.
On the technique in general: In western blotting, separated proteins are transferred to a membrane and probed.

The subject of a further test is FHC cells. Put plainly: In vitro enterocyte migration (scratch wound). Conditions: Ys49 2 and 5 μM with peptide 40 μM for 1 h, then LPS. On the procedure: Cells were expected to reach a 100% confluence on the day of the experiment. Monolayers were scratched by a sterile pipette tip and washed for three times with pre-warmed 1 × PBS. The wounded monolayer of FHC or IEC-6 cells was imaged at indicated time using a microscope (Zeiss, Germany). The relative migration index of the cells was measured according to the area of the wound edge by Image J software (NIH Image, USA).

Setting [5] is: LY294002 10 μM in the absence or presence of ^Tat(48–60) YVEEL 40 μM, LPS.
[6] abbreviates: Ys49 2 and 5 μM with ^Tat(48–60) YVEEL 40 μM for 1 h, then LPS.

Consider `O=c1cc(N2CCOCC2)oc2c(-c3ccccc3)cccc12` [LY294002], for which, in test [1] (setting [5]), the “TLR4-induced mRNA expression of COX-2” value is listed as “reduced” and the “TLR4-induced mRNA expression of IL-6” value was “reduced”. The “TLR4 protein expression, inhibition in the presence of ^Tat(48–60) YVEEL” value in test [2] (LY294002 10 μM plus ^Tat(48–60) YVEEL 40 μM, LPS) is “more significant”. The TLR4 protein expression result in test [2] (LY294002 10 μM, LPS) is given as “could inhibit”.

Consider `Oc1cc2c(cc1O)C(Cc1cccc3ccccc13)NCC2` (stereo not shown) [Ys49], for which the “effect on blockage of TLR4-mediated cytoplasm-nucleus translocation of p65 by the peptide” value in test [3] is given as “attenuated”. In test [4], the “effect on inhibitory effects of ^Tat(48–60) YVEEL on PI3K/AKT pathway” value is recorded as “significantly abolished”. Besides, the “effect on protective effect of ^Tat(48–60) YVEEL on TLR4-mediated induction of pro-inflammatory cytokines (IL-6, COX-2 mRNA)” value in test [1] (setting [6]) is given as “reversed”. In the test on FHC cells, the “effect on protective effect of ^Tat(48–60) YVEEL on enterocyte migration” value is reported as “attenuated”. In test [2] (setting [6]), the “effect on ^Tat(48–60) YVEEL-induced reduction of TLR4 expression” value was “notably reversed” and the “effect on ^Tat(48–60) YVEEL-induced reduction of p-IκBα expression” value is given as “notably reversed”.
